The values that follow come from ChEMBL document CHEMBL4842375, “Discovery of a Potent Glutathione Peroxidase 4 Inhibitor as a Selective Ferroptosis Inducer” (J Med Chem, 2021).

Each structure is given as a SMILES string. Calls of active or inactive are those of the source. No cut-off for these calls is given here.

The test system of experiment [1] is HT-1080. The experiment is described as follows: Cytotoxicity against human HT-1080 cells assessed as reduction in cell viability incubated for 48 hrs by MTT assay. In kind it is functional, cell-based. The conditions noted are these: HT-1080, 48 h.
Experiment [2] deals with MCF7. The experiment is described as follows: Cytotoxicity against human MCF7 cells assessed as reduction in cell viability incubated for 48 hrs by MTT assay. In kind it is functional, cell-based. The following applies: MCF7, 48 h. A general note: Formazan colour is commonly taken as a measure of viable cells.
Experiment [3] has as its system 4T1. The experiment is described as follows: Cytotoxicity against mouse 4T1 cells assessed as reduction in cell viability incubated for 48 hrs by MTT assay. In kind it is functional, cell-based. The conditions noted are these: 4T1, 48 h.
A short description of experiment [4]: Selectivity index, ratio of IC50 for cytotoxicity against human HT-1080 cells in presence of Fer-1 to IC50 for cytotoxicity against human HT-1080 cells. In kind it is functional.
The test system of experiment [5] is HT-1080. The experiment is described as follows: Cytotoxicity against human HT-1080 cells assessed as reduction in cell viability incubated for 48 hrs in presence of Fer-1 by MTT assay. It counts as functional, cell-based. The conditions noted are these: HT-1080, 48 h.
Experiment [6] deals with 4T1. The experiment is described as follows: Effect on intracellular GSH level in mouse 4T1 cells assessed as reduction in GSH level. It counts as functional, cell-based.
The target in experiment [7] is T1, Phospholipid hydroperoxide glutathione peroxidase GPX4 (Homo sapiens) (UniProt P36969).
T1 sequence (whole entry): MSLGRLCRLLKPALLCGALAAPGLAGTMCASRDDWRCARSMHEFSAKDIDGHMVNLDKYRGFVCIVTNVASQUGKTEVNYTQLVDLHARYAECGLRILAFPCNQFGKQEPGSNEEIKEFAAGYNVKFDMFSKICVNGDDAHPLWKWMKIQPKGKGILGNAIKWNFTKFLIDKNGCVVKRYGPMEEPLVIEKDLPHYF
The experiment is described as follows: Inhibition of GPX4 in mouse 4T1 cells assessed as decrease in intracellular GPX4 activity at 5 uM after 6 hrs. In kind it is cell-based.

In the case of `CCOC(=O)c1ccc(CN(C(=O)CCl)C(C(=O)NCc2ccccc2)c2c[nH]c3ccccc23)cc1` (stereo not drawn), the concentration for half-maximal inhibition (IC50) (usually the concentration at which inhibition is half-maximal) in experiment [1] worked out at 3 µM; in experiment [2] it was 20.4 µM; in experiment [3] it was 9.91 µM; in experiment [5] it was 4.9 µM. The “Ratio IC50” value in experiment [4] came out at 1.63.

Consider `O=C(NCCc1ccccc1)C(c1c[nH]c2ccccc12)N(C(=O)CCl)c1ccc(-c2nnco2)cc1` (stereo not drawn), for which the IC50 in experiment [1] came to 0.35 µM; in experiment [2] it was 5.92 µM; in experiment [3] it was 0.89 µM; in experiment [5], 4.52 µM. For the same compound, the “Ratio IC50” value in experiment [4] was 12.9.

For the compound `CCOC(=O)c1ccc(N(C(=O)CCl)C(C(=O)NCCc2ccccc2)c2c[nH]c3ncccc23)cc1` (stereo not drawn), the IC50 came to 3.2 µM in experiment [1], 6.85 µM in experiment [2], 9.3 µM in experiment [3] and 5.3 µM in experiment [5]. Moreover, the “Ratio IC50” value in experiment [4] came out at 1.7.

Regarding `CCOC(=O)c1ccc(N(C(=O)CCl)C(C(=O)NCCc2ccccc2)c2cccc3[nH]ccc23)cc1` (stereo not drawn), the 50% inhibitory concentration (IC50) in experiment [1] stood at 0.4 µM; in experiment [2] it was 14.8 µM; in experiment [3], 2.96 µM; in experiment [5], 1.3 µM. Further, the “Ratio IC50” value in experiment [4] came to 3.2.

As to `CCOC(=O)c1ccc(N(C(=O)CCl)C(C(=O)NCCc2ccccc2)c2cc[nH]n2)cc1` (stereo not drawn), the IC50 in experiment [1] was 0.7 µM; in experiment [2] it was 15.2 µM; in experiment [3], 4.47 µM; in experiment [5], 4.3 µM. Further, the “Ratio IC50” value in experiment [4] was 6.1.

`CCOC(=O)c1ccc(N(C(=O)CCl)C(C(=O)NCCc2ccccc2)c2csc3ccccc23)cc1` (stereo not drawn): the concentration for half-maximal inhibition (IC50) in experiment [1] came to 0.28 µM; in experiment [2], 12.5 µM; in experiment [3], 1.48 µM; in experiment [5], 4.7 µM. In addition, the “Ratio IC50” value in experiment [4] turned out to be 16.8.

Consider `CCOC(=O)c1ccc(N(C(=O)CCl)C(C(=O)NCCc2ccccc2)c2ccnn2C)cc1` (stereo not drawn), for which the IC50 in experiment [1] was determined as 2.1 µM; in experiment [2] it was 8.97 µM; in experiment [3], 10.2 µM; in experiment [5], 2.5 µM. Also, the “Ratio IC50” value in experiment [4] is reported as 1.2.

For the compound `CCOC(=O)c1ccc(N(C(=O)CCl)C(C(=O)NCCc2cccc(C(F)(F)F)c2)c2c[nH]c3ccccc23)cc1` (stereo not drawn), the concentration for half-maximal inhibition (IC50) was found to be 0.56 µM in experiment [1], 10.3 µM in experiment [2], 2.17 µM in experiment [3] and 5.03 µM in experiment [5]. The “Ratio IC50” value in experiment [4] came to 9.

In the case of `CCOC(=O)c1ccc(N(C(=O)CCl)C(C(=O)NCCc2ccccc2Cl)c2c[nH]c3ccccc23)cc1` (stereo not drawn), the 50% inhibitory concentration (IC50) is 0.89 µM in experiment [1], 13.4 µM in experiment [2], 2.31 µM in experiment [3] and 3.21 µM in experiment [5]. Further, in experiment [4], the “Ratio IC50” value stood at 3.6.

As to `CCOC(=O)c1ccc(N(C(=O)CCl)C(C(=O)NCCc2cccc(Cl)c2)c2c[nH]c3ccccc23)cc1` (stereo not drawn), the IC50 was found to be 0.37 µM in experiment [1], 9.26 µM in experiment [2], 1.99 µM in experiment [3] and 4.5 µM in experiment [5]. Besides, the “Ratio IC50” value in experiment [4] stood at 12.2.

Turning to `CCOC(=O)c1ccc(CN(C(=O)CCl)C(C(=O)NC(C)(C)C)c2c[nH]c3ccccc23)cc1` (stereo not drawn), the IC50 in experiment [1] was 16 µM; in experiment [2] it was 15.5 µM; in experiment [3] it was 9.43 µM; in experiment [5], 16 µM. Further, the “Ratio IC50” value in experiment [4] is on record as 1.

As to `CCOC(=O)c1ccc(N(C(=O)CCl)C(C(=O)NC2CCCCC2)c2c[nH]c3ccccc23)cc1` (stereo not drawn), the 50% inhibitory concentration (IC50) in experiment [1] was 0.93 µM; in experiment [2], 9.01 µM; in experiment [3], 4.63 µM; in experiment [5], 3.45 µM. Also, in experiment [4], the “Ratio IC50” value stood at 3.7.

In the case of `CCOC(=O)c1ccc(N(C(=O)CCl)C(C(=O)NCCc2cccc(OC)c2)c2c[nH]c3ccccc23)cc1` (stereo not drawn), the IC50 was determined as 0.41 µM in experiment [1], 11.3 µM in experiment [2], 2.35 µM in experiment [3] and 4.88 µM in experiment [5]. For the same compound, in experiment [4], the “Ratio IC50” value is listed as 11.9.

For `COC(=O)c1ccc([C@H]2c3[nH]c4ccccc4c3C[C@H](C(=O)OC)N2C(=O)CCl)cc1`, the outcome in experiment [6] was inactive. Besides, the concentration for half-maximal inhibition (IC50) turned out to be 1.2 µM in experiment [1], 13.6 µM in experiment [2], 3.69 µM in experiment [3] and 3.7 µM in experiment [5]. Also, in experiment [4], the “Ratio IC50” value is reported as 3.1. The inhibition (as a rule, the relative decrease from the control value, in per cent) in experiment [7] worked out at 11.8%.

`C=CCNC(=O)C(c1c[nH]c2ccccc12)N(C(=O)CCl)c1ccc(C(=O)OCC)cc1` (stereo not drawn): the IC50 in experiment [1] amounted to 0.74 µM; in experiment [2] it was 12.6 µM; in experiment [3], 2.15 µM; in experiment [5] it was 4.57 µM. The “Ratio IC50” value in experiment [4] stood at 6.2.

On to `O=C(NCCc1ccccc1)C(c1c[nH]c2ccccc12)N(C(=O)CCl)c1ccc(Br)cc1` (stereo not drawn), for which the IC50 in experiment [2] turned out to be 10.9 µM; in experiment [3], 6.47 µM.

With `CCOC(=O)c1ccc(N(C(=O)CCl)C(C(=O)NC(C)(C)C)c2c[nH]c3ccccc23)cc1` (stereo not drawn), the half-inhibitory concentration (IC50) was determined as 0.43 µM in experiment [1], 12.1 µM in experiment [2], 3.22 µM in experiment [3] and 4.2 µM in experiment [5]. Besides, in experiment [4], the “Ratio IC50” value was determined as 9.8.

As to `CCOC(=O)c1ccc(N(C(=O)CCl)C(C(=O)NCc2ccccc2)c2c[nH]c3ccccc23)cc1` (stereo not drawn), the IC50 in experiment [1] amounted to 1.1 µM; in experiment [2] it was 11.9 µM; in experiment [3] it was 4.92 µM; in experiment [5], 6.4 µM. For the same compound, the “Ratio IC50” value in experiment [4] amounted to 5.8.

On to `CCOC(=O)c1ccc(N(C(=O)CCl)C(C(=O)NCCc2ccccc2)c2c[nH]c3ccccc23)cc1` (stereo not drawn), for which the IC50 in experiment [1] came out at 0.3 µM; in experiment [2], 8.71 µM; in experiment [3] it was 1.93 µM; in experiment [5], 4.43 µM. In experiment [4], the “Ratio IC50” value is reported as 14.7.

As for `N#Cc1ccc(N(C(=O)CCl)C(C(=O)NCCc2ccccc2)c2c[nH]c3ccccc23)cc1` (stereo not drawn), the half-maximal inhibitory concentration (IC50) in experiment [1] stood at 0.75 µM; in experiment [2], 6.85 µM; in experiment [3] it was 9.3 µM; in experiment [5] it was 4.2 µM. Also, the “Ratio IC50” value in experiment [4] is recorded as 5.6.

For `Cc1noc(-c2ccc(N(C(=O)CCl)C(C(=O)NCCc3ccccc3)c3csc4ccccc34)cc2)n1` (stereo not drawn), the half-maximal inhibitory concentration (IC50) in experiment [1] came to 0.21 µM; in experiment [2] it was 8.28 µM; in experiment [3], 0.75 µM; in experiment [5], 3.5 µM. Further, the “Ratio IC50” value in experiment [4] is listed as 16.7.

As to `CCOC(=O)c1ccc(N(C(=O)CCl)C(C(=O)NCCc2ccc(Cl)cc2)c2c[nH]c3ccccc23)cc1` (stereo not drawn), the IC50 in experiment [1] was determined as 0.43 µM; in experiment [2] it was 16.3 µM; in experiment [3], 2.07 µM; in experiment [5], 4.31 µM. Also, the “Ratio IC50” value in experiment [4] worked out at 10.

Consider `CCOC(=O)c1ccc(CN(C(=O)CCl)C(C(=O)NCCc2ccccc2)c2c[nH]c3ccccc23)cc1` (stereo not drawn), for which the IC50 in experiment [1] came out at 2.3 µM; in experiment [2], 14.8 µM; in experiment [3], 5.86 µM; in experiment [5] it was 4.4 µM. In addition, in experiment [4], the “Ratio IC50” value was found to be 1.91.

In the case of `O=C(NCCc1ccccc1)C(c1csc2ccccc12)N(C(=O)CCl)c1ccc(-c2nnco2)cc1` (stereo not drawn), the IC50 is 0.2 µM in experiment [1], 7.06 µM in experiment [2], 0.81 µM in experiment [3] and 3.9 µM in experiment [5]. In addition, the “Ratio IC50” value in experiment [4] is recorded as 19.5.

As for `O=C(NCCc1ccccc1)C(c1c[nH]c2ccccc12)N(C(=O)CCl)c1ccc(-c2cnco2)cc1` (stereo not drawn), the half-maximal inhibitory concentration (IC50) stood at 0.16 µM in experiment [1], 5.7 µM in experiment [2], 1.04 µM in experiment [3] and 3.92 µM in experiment [5]. In addition, the “Ratio IC50” value in experiment [4] amounted to 24.5.

For `COc1ccc(N(C(=O)CCl)C(C(=O)NCCc2ccccc2)c2c[nH]c3ccccc23)cc1` (stereo not drawn), the half-maximal inhibitory concentration (IC50) was 15.3 µM in experiment [2] and 9.72 µM in experiment [3].

For the compound `Cc1noc(-c2ccc(N(C(=O)CCl)C(C(=O)NCCc3ccccc3)c3c[nH]c4ccccc34)cc2)n1` (stereo not drawn), the half-maximal inhibitory concentration (IC50) in experiment [1] was 0.33 µM; in experiment [2], 13.2 µM; in experiment [3], 1.94 µM; in experiment [5] it was 4.21 µM. For the same compound, the “Ratio IC50” value in experiment [4] is 12.8.

Take `COc1ccc(N(C(=O)CCl)C(C(=O)NCCc2ccccc2)c2cccs2)cc1Cl` (stereo not drawn): the IC50 in experiment [1] is 0.66 µM; in experiment [2], 10.1 µM; in experiment [3], 2.52 µM; in experiment [5], 7.31 µM. In experiment [4], the “Ratio IC50” value was 11.1.

Turning to `O=C(NCCc1ccccc1)C(c1c[nH]c2ccccc12)N(C(=O)CCl)c1ccc(F)cc1` (stereo not drawn), the results for the half-maximal inhibitory concentration (IC50) in experiment [2] and in experiment [3] were 13.5 µM and 9.21 µM, respectively.
